System: SD40 fusions with Nluc, Fluc, and PRKRA
Assay: Immunoblot, degradation of exogenously expressed SD40 fusion proteins in HEK293T cells
Assay type: cell-based, human
Experimental: To test the versatility of SD40, we generated five stable HEK293T cell lines that exogenously express N- or C-terminal SD40 fusions with Nluc, Fluc, and the kinase activator PRKRA. […] To investigate whether SD40 targets unintended neosubstrates for degradation, we performed global proteomics using HEK293T cells stably expressing SD40–eGFP.
HEK293T or K562 cells were plated at a density of 1.6 x 10^5 cells/well in a 24-well plate coated with poly-D-lysine (Corning) in 1 mL media (DMEM + 10% FBS for HEK293T cells and RPMI + 10% FBS for K562 cells). After 16–18 hrs, cells were treated with either DMSO or the indicated concentration of small molecules to a 0.5% final concentration of DMSO. Plates were incubated at 37 °C, 5% CO2 for 24 hours for all cell lines except endogenously tagged PLK1–SD40 HEK293T cells, which were incubated for 2 hours. Cells were washed with PBS and then lysed for 30 minutes at 4 °C in radioimmunoprecipitation assay (RIPA; 25 mM Tris-HCl, 150 mM NaCl, 1% NP-40, 1% sodium deoxycholate, 0.1% SDS, pH ~ 7.6) buffer containing 1 mM phenylmethylsulfonyl fluoride (PMSF; Sigma Aldrich) and 1 x EDTA-free protease inhibitor cocktail (Roche). Lysates were centrifuged for 20 min @18,000 x g to isolate the soluble fractions. Protein concentration in clarified lysates was quantified using Pierce BCA Protein Assay Kit (Thermo Scientific) according to the manufacturer’s protocol. Clarified lysates were mixed with NuPAGE LDS Sample Buffer (Thermo NP0007) containing 10 mM DTT and boiled for 10 minutes. Gel electrophoresis was performed on boiled samples using polyacrylamide gels (Invitrogen NP0329BOX) with equal amounts of total protein in each lane. Proteins were transferred to nitrocellulose membranes (Invitrogen IB23001) using the iBlot 2 (Invitrogen IB21001) P0 protocol. After transfer, membranes were blocked in blocking buffer (50 mM Tris-HCl, 150 mM NaCl, 0.5% Tween-20, 1% bovine serum albumin, pH 7.4) for 1 hr at RT and then incubated with primary antibody overnight at 4 °C in blocking buffer. […]

With `O=C1CCC(N2C(=O)c3ccc(N4CCOCC4)cc3C2=O)C(=O)N1` (stereo not drawn) [PT-179] the “time at which PRKRA degradation occurred” value (1 μM PT-179, SD40-PRKRA) was no more than 10 min, the “time to near complete PRKRA degradation (in words)” value (1 μM PT-179, SD40-PRKRA) was “nearly complete within one hour” and the “degradation of N- or C-terminal SD40 fusion constructs (in words)” value (24 hrs, 1 nM-10 µM) was “robust dose-dependent degradation”.

Reference: paper PMC11203266, “Continuous evolution of compact protein degradation tags regulated by selective molecular glues” (Science (New York, N.Y.), 2024)
